# Assays:
# Assay in all cases: KINOMEscan competition binding
# Details in all cases: compound 10.0 µM
# HIPK1 (human) = HIPK1 (human) (UniProt Q86Z02)
# CIT (human) = CIT (human) (UniProt O14578)
# CAMK1D (human) = CAMK1D (human) (UniProt Q8IU85)
# MATK (human) = MATK (human) (UniProt P42679)
# INSR (human) = INSR (human) (UniProt P06213)
# STK10 (human) = STK10 (human) (UniProt O94804)
# TLK2 (human) = TLK2 (human) (UniProt Q86UE8)
# CDK14 (human) = CDK14 (human) (UniProt O94921)
# PLK1 (human) = PLK1 (human) (UniProt P53350)
# STK36 (human) = STK36 (human) (UniProt Q9NRP7)
# CDK8 (human) = CDK8 (human) (UniProt P49336)
# Sequence of CDK8 (human) (P49336 whole entry, looked up): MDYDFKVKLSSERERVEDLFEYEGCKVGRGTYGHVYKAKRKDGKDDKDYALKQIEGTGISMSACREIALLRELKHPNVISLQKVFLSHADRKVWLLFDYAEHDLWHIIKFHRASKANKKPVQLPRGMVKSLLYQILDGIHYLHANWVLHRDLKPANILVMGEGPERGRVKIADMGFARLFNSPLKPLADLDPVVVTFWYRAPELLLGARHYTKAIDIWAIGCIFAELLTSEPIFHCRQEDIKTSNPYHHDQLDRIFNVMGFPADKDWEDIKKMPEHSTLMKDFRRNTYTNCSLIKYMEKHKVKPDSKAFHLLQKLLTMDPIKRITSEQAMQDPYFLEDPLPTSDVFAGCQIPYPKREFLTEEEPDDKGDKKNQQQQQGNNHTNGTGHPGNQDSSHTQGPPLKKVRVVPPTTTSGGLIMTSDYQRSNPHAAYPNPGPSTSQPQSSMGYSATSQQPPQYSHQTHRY
# STK17A (human) = STK17A (human) (UniProt Q9UEE5)
# KIT (human) = KIT (human) (UniProt P10721)
# PRKG2 (human) = PRKG2 (human) (UniProt Q13237)
# CDK17 (human) = CDK17 (human) (UniProt Q00537)
# Sequence of CDK17 (human) (Q00537 whole entry, looked up): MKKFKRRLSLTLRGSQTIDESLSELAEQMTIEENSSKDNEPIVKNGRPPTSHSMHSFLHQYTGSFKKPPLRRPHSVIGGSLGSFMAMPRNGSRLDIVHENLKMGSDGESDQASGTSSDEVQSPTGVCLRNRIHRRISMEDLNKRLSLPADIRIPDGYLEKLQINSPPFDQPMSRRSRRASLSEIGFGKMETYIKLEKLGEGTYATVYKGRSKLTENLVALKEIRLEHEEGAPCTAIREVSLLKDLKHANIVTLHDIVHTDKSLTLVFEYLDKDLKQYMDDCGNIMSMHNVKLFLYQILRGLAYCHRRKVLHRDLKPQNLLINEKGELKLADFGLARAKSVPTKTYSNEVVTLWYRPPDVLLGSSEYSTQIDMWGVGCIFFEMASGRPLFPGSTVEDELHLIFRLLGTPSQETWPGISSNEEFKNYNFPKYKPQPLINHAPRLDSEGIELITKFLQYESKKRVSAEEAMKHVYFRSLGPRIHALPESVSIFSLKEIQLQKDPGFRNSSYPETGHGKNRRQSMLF
# PLK4 (human) = PLK4 (human) (UniProt O00444)
# PIK3CG (human) = PIK3CG (human) (UniProt P48736)
# MAP3K3 (human) = MAP3K3 (human) (UniProt Q99759)
# AURKA (human) = AURKA (human) (UniProt O14965)
# CAMK2A (human) = CAMK2A (human) (UniProt Q9UQM7)
# PRKCI (human) = PRKCI (human) (UniProt P41743)
# NEK1 (human) = NEK1 (human) (UniProt Q96PY6)
# LRRK2 (human) = LRRK2 (human) (UniProt Q5S007)
# SBK1 (human) = SBK1 (human) (UniProt Q52WX2)
# RPS6KA3 KD1 (human) = RPS6KA3 KD1 (human) (UniProt P51812)
# FGFR1 (human) = FGFR1 (human) (UniProt P11362)
# DCLK1 (human) = DCLK1 (human) (UniProt O15075)
# CDK9 (human) = CDK9 (human) (UniProt P50750)
# TNIK (human) = TNIK (human) (UniProt Q9UKE5)
# TAOK3 (human) = TAOK3 (human) (UniProt Q9H2K8)
# TNK1 (human) = TNK1 (human) (UniProt Q13470)
# Sequence of TNK1 (human) (Q13470 whole entry, looked up): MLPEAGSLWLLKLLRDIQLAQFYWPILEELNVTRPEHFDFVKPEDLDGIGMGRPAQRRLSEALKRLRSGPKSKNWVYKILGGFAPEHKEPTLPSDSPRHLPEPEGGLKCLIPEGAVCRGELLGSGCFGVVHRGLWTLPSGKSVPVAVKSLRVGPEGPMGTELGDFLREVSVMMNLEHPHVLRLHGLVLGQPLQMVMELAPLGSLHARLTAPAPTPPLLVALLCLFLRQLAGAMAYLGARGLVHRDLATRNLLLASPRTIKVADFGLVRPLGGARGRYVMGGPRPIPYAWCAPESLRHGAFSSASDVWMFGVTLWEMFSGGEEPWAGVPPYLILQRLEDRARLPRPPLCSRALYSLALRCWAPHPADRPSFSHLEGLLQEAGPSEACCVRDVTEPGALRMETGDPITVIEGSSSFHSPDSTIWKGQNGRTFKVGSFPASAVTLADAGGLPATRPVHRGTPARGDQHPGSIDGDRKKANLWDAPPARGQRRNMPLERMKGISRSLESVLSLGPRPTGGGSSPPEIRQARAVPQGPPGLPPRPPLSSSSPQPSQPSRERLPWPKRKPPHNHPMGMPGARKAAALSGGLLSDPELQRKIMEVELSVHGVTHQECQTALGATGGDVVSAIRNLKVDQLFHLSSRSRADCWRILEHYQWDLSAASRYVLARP
# HIPK3 (human) = HIPK3 (human) (UniProt Q9H422)
# RPS6KB1 (human) = RPS6KB1 (human) (UniProt P23443)
# MYO3B (human) = MYO3B (human) (UniProt Q8WXR4)
# Sequence of MYO3B (human) (Q8WXR4 whole entry, looked up): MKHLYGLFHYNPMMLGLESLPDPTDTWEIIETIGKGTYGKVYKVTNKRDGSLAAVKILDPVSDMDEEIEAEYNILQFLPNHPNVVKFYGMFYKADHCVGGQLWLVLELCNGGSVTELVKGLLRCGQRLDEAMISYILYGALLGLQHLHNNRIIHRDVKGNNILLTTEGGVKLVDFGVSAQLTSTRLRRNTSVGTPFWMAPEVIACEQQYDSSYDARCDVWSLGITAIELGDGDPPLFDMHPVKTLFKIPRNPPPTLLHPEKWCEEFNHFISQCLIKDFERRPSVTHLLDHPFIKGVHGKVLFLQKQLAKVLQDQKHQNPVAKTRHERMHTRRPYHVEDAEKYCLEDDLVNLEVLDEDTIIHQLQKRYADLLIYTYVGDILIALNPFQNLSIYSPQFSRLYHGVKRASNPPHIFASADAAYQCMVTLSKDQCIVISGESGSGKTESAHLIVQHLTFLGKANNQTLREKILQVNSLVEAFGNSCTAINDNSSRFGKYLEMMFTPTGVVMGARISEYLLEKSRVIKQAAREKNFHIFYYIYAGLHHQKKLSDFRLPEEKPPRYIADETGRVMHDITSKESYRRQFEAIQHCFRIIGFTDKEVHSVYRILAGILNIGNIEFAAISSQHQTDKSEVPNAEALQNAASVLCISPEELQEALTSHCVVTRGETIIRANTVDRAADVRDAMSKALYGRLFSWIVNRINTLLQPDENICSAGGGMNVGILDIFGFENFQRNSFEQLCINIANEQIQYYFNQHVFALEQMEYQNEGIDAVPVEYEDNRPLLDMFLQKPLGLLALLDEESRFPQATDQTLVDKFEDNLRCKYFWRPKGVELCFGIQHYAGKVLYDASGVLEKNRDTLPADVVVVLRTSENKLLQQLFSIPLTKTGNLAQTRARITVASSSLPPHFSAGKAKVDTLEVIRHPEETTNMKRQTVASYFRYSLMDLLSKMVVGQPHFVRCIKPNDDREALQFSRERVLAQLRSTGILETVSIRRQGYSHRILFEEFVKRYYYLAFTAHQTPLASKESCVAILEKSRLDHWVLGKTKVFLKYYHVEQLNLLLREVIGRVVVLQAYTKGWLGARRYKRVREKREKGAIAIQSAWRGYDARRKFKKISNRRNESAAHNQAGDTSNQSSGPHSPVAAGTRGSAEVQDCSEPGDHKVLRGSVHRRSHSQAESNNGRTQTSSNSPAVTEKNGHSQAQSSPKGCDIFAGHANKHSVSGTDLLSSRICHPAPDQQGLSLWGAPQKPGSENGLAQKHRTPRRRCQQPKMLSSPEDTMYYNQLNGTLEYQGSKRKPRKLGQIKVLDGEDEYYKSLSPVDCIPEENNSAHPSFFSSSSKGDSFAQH
# PAK7 (human) = PAK7 (human) (UniProt Q9P286)
# CAMK2G (human) = CAMK2G (human) (UniProt Q13555)
# Sequence of CAMK2G (human) (Q13555 whole entry, looked up): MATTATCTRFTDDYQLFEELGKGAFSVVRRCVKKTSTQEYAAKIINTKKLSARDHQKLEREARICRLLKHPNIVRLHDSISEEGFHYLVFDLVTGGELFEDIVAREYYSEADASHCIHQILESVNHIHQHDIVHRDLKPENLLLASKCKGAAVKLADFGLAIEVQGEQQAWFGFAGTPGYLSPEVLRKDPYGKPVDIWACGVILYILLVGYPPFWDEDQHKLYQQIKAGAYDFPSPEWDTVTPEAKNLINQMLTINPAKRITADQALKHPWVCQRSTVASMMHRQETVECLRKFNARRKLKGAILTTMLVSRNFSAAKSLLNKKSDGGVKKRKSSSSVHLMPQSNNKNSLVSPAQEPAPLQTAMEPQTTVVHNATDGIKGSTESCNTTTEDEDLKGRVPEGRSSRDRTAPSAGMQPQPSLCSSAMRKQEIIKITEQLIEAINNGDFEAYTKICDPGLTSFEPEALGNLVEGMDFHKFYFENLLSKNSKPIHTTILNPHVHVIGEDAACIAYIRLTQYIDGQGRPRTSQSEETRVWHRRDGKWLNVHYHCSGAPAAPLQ
# TSSK1B (human) = TSSK1B (human) (UniProt Q9BXA7)
# CLK3 (human) = CLK3 (human) (UniProt P49761)
# PIP4K2C (human) = PIP4K2C (human) (UniProt Q8TBX8)
# MAPK8 (human) = MAPK8 (human) (UniProt P45983)
# Sequence of CAMK1D (human) (Q8IU85 whole entry, looked up): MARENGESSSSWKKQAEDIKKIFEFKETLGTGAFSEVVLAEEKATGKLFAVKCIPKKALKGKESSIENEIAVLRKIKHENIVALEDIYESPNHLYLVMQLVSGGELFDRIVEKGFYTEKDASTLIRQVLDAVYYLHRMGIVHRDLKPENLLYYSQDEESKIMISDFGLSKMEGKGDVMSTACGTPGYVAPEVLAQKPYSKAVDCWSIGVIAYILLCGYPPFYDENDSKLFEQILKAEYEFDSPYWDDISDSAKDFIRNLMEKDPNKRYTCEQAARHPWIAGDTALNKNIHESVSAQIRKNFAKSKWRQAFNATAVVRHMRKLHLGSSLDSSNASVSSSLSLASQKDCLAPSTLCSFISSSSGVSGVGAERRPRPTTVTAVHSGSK
# Sequence of STK10 (human) (O94804 whole entry, looked up): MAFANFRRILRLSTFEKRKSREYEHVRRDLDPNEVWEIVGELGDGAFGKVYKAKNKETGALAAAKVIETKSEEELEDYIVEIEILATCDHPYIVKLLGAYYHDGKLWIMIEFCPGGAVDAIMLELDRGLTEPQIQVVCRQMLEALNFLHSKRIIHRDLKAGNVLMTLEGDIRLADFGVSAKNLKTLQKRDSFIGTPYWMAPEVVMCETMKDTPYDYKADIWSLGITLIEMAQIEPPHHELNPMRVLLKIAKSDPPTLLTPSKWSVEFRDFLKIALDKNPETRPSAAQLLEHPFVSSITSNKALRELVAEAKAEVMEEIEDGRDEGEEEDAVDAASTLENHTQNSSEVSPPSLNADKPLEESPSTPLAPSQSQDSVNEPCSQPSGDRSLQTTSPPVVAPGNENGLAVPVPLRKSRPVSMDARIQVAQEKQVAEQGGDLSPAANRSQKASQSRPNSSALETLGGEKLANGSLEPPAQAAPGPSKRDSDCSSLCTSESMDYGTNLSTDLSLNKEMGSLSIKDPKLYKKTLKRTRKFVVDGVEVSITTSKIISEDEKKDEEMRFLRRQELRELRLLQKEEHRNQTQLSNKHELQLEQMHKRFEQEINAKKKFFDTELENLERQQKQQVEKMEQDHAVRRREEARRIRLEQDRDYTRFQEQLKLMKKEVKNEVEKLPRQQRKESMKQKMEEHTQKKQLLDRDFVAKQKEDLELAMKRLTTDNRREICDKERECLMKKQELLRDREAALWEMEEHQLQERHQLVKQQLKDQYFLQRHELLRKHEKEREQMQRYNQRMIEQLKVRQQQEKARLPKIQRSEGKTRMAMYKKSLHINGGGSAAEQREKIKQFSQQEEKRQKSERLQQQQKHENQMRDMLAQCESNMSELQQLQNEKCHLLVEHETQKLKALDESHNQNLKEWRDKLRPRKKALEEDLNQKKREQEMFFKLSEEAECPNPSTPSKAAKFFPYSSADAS
Compound,"kinase still bound, per cent of control (HIPK1 (human))","kinase still bound, per cent of control (CIT (human))","kinase still bound, per cent of control (CAMK1D (human))","kinase still bound, per cent of control (MATK (human))","kinase still bound, per cent of control (INSR (human))","kinase still bound, per cent of control (STK10 (human))","kinase still bound, per cent of control (TLK2 (human))","kinase still bound, per cent of control (CDK14 (human))","kinase still bound, per cent of control (PLK1 (human))","kinase still bound, per cent of control (STK36 (human))","kinase still bound, per cent of control (CDK8 (human))","kinase still bound, per cent of control (STK17A (human))","kinase still bound, per cent of control (KIT (human))","kinase still bound, per cent of control (PRKG2 (human))","kinase still bound, per cent of control (CDK17 (human))","kinase still bound, per cent of control (PLK4 (human))","kinase still bound, per cent of control (PIK3CG (human))","kinase still bound, per cent of control (MAP3K3 (human))","kinase still bound, per cent of control (AURKA (human))","kinase still bound, per cent of control (CAMK2A (human))",further results
COc1cc2ncnc(-n3nc(-c4ccccn4)nc3N)c2cc1OC,0.55%,30%,34%,57%,91%,12%,40%,62%,22%,7.4%,100%,1.6%,10%,75%,59%,0.2%,3.1%,48%,15%,44%,"kinase still bound, per cent of control (PRKCI (human)): 55%; kinase still bound, per cent of control (NEK1 (human)): 36%; kinase still bound, per cent of control (LRRK2 (human)): 41%; kinase still bound, per cent of control (SBK1 (human)): 100%; kinase still bound, per cent of control (RPS6KA3 KD1 (human)): 2.8%; kinase still bound, per cent of control (FGFR1 (human)): 65%; kinase still bound, per cent of control (DCLK1 (human)): 36%; kinase still bound, per cent of control (CDK9 (human)): 76%; kinase still bound, per cent of control (TNIK (human)): 40%; kinase still bound, per cent of control (TAOK3 (human)): 39%; kinase still bound, per cent of control (TNK1 (human)): 11%; kinase still bound, per cent of control (HIPK3 (human)): 0%; kinase still bound, per cent of control (RPS6KB1 (human)): 2.6%; kinase still bound, per cent of control (MYO3B (human)): 100%; kinase still bound, per cent of control (PAK7 (human)): 63%; kinase still bound, per cent of control (CAMK2G (human)): 56%; kinase still bound, per cent of control (TSSK1B (human)): 60%; kinase still bound, per cent of control (CLK3 (human)): 3.6%; kinase still bound, per cent of control (PIP4K2C (human)): 1.1%; kinase still bound, per cent of control (MAPK8 (human)): 12%"
O=C(Nc1cccc(Nc2ncc(Br)c(NCCc3cnc[nH]3)n2)c1)N1CCCC1,1.2%,0.75%,4.6%,40%,27%,4.6%,56%,44%,41%,18%,97%,0.2%,0.15%,4.8%,77%,0.7%,58%,0.3%,1.6%,27%,"kinase still bound, per cent of control (PRKCI (human)): 45%; kinase still bound, per cent of control (NEK1 (human)): 30%; kinase still bound, per cent of control (LRRK2 (human)): 11%; kinase still bound, per cent of control (SBK1 (human)): 3.6%; kinase still bound, per cent of control (RPS6KA3 KD1 (human)): 0.5%; kinase still bound, per cent of control (FGFR1 (human)): 0.25%; kinase still bound, per cent of control (DCLK1 (human)): 35%; kinase still bound, per cent of control (CDK9 (human)): 66%; kinase still bound, per cent of control (TNIK (human)): 0.8%; kinase still bound, per cent of control (TAOK3 (human)): 0.1%; kinase still bound, per cent of control (TNK1 (human)): 1.4%; kinase still bound, per cent of control (HIPK3 (human)): 3.7%; kinase still bound, per cent of control (RPS6KB1 (human)): 3.2%; kinase still bound, per cent of control (MYO3B (human)): 93%; kinase still bound, per cent of control (PAK7 (human)): 1.6%; kinase still bound, per cent of control (CAMK2G (human)): 52%; kinase still bound, per cent of control (TSSK1B (human)): 48%; kinase still bound, per cent of control (CLK3 (human)): 74%; kinase still bound, per cent of control (PIP4K2C (human)): 2%; kinase still bound, per cent of control (MAPK8 (human)): 0.2%"
COc1ccc(N(C(=O)Oc2c(C)cccc2C)c2ccnc(Nc3ccc(N4CCN(C)CC4)cc3)n2)c(OC)c1,100%,3.8%,100%,67%,100%,0%,76%,93%,100%,0.95%,100%,100%,0.45%,92%,80%,37%,100%,0.75%,6.8%,84%,"kinase still bound, per cent of control (PRKCI (human)): 62%; kinase still bound, per cent of control (NEK1 (human)): 76%; kinase still bound, per cent of control (LRRK2 (human)): 78%; kinase still bound, per cent of control (SBK1 (human)): 100%; kinase still bound, per cent of control (RPS6KA3 KD1 (human)): 37%; kinase still bound, per cent of control (FGFR1 (human)): 0.25%; kinase still bound, per cent of control (DCLK1 (human)): 84%; kinase still bound, per cent of control (CDK9 (human)): 33%; kinase still bound, per cent of control (TNIK (human)): 37%; kinase still bound, per cent of control (TAOK3 (human)): 4%; kinase still bound, per cent of control (TNK1 (human)): 0%; kinase still bound, per cent of control (HIPK3 (human)): 91%; kinase still bound, per cent of control (RPS6KB1 (human)): 72%; kinase still bound, per cent of control (MYO3B (human)): 18%; kinase still bound, per cent of control (PAK7 (human)): 82%; kinase still bound, per cent of control (CAMK2G (human)): 100%; kinase still bound, per cent of control (TSSK1B (human)): 87%; kinase still bound, per cent of control (CLK3 (human)): 88%; kinase still bound, per cent of control (PIP4K2C (human)): 100%; kinase still bound, per cent of control (MAPK8 (human)): 64%"
